Results reported in ChEMBL document CHEMBL1201862, “PubChem BioAssay data set” (2004).
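96-well plates; 48 h exposure; 5 concentrations. Endpoints by linear interpolation between flanking doses. Not reached: highest tested concentration assigned. At the GI50, growth is halved.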 The source made the active and inactive calls. Cut-off read from the data, not from the text of the source: active = GI50 up to about 1.1 µM and inactive = higher.

Legend:
Assay in all cases: DTP human tumour cell line panel, 48 h
RPMI-8226 = system: RPMI-8226
SK-MEL-28 = system: SK-MEL-28
UACC-257 = system: UACC-257
TK-10 = system: TK-10
CCRF-CEM = system: CCRF-CEM
A549 = system: A549
OVCAR-8 = system: OVCAR-8
SK-MEL-5 = system: SK-MEL-5
SK-OV-3 = system: SK-OV-3
UO-31 = system: UO-31
HCT-116 = system: HCT-116
786-0 = system: 786-0
SK-MEL-2 = system: SK-MEL-2
SW-620 = system: SW-620
LOX IMVI = system: LOX IMVI
MOLT-4 = system: MOLT-4
SF-539 = system: SF-539
OVCAR-4 = system: OVCAR-4

Measured: GI50

N#Cc1nc(/C=C/c2cccs2)oc1N
inactive: RPMI-8226 27.8 µM | SK-MEL-28 > 100 µM | UACC-257 > 100 µM | TK-10 61.4 µM | CCRF-CEM 25.4 µM | A549 > 100 µM | OVCAR-8 > 100 µM | SK-MEL-5 51.1 µM | SK-OV-3 > 100 µM | UO-31 10.4 µM | HCT-116 > 100 µM | 786-0 > 100 µM | SK-MEL-2 > 100 µM | SW-620 > 100 µM | LOX IMVI > 100 µM | MOLT-4 45 µM

O=C1CCC(=O)N1CNc1cccc(NCN2C(=O)CCC2=O)c1
inactive: RPMI-8226 17.3 µM | SK-MEL-28 > 100 µM | UACC-257 71.6 µM | TK-10 > 100 µM | CCRF-CEM 29.6 µM | A549 > 100 µM | OVCAR-8 > 100 µM | SF-539 > 100 µM | SK-MEL-5 > 100 µM | OVCAR-4 > 100 µM | UO-31 > 100 µM | HCT-116 64.3 µM | 786-0 > 100 µM | SK-MEL-2 > 100 µM | SW-620 > 100 µM | MOLT-4 52.6 µM

CC(=O)Nc1ccc(S(=O)(=O)NN(C)S(=O)(=O)c2ccc(C)cc2)cc1
inactive: RPMI-8226 > 100 µM | SK-MEL-28 > 100 µM | UACC-257 > 100 µM | TK-10 > 100 µM | CCRF-CEM > 100 µM | A549 > 100 µM | OVCAR-8 > 100 µM | SF-539 > 100 µM | SK-MEL-5 > 100 µM | SK-OV-3 > 100 µM | OVCAR-4 > 100 µM | UO-31 > 100 µM | HCT-116 > 100 µM | 786-0 > 100 µM | SK-MEL-2 > 100 µM | SW-620 > 100 µM | MOLT-4 > 100 µM

Cc1ccc(C)c(NC(=O)CC/C(=N\NC(=O)C(N)=O)C(C)C(=O)c2ccc(O)cc2)c1 (centres undefined)
inactive: SK-MEL-28 > 100 µM | UACC-257 > 100 µM | CCRF-CEM > 100 µM | A549 > 100 µM | OVCAR-8 > 100 µM | SF-539 > 100 µM | SK-MEL-5 > 100 µM | SK-OV-3 > 100 µM | OVCAR-4 > 100 µM | UO-31 > 100 µM | HCT-116 > 100 µM | 786-0 > 100 µM | SK-MEL-2 > 100 µM | SW-620 > 100 µM | LOX IMVI > 100 µM | MOLT-4 > 100 µM

C=C(C)CCOC(c1ccccc1)(c1ccccc1)c1ccccc1
inactive: RPMI-8226 33.9 µM | SK-MEL-28 42.7 µM | UACC-257 25.4 µM | TK-10 83.4 µM | CCRF-CEM 61.4 µM | A549 38.9 µM | OVCAR-8 73.5 µM | SF-539 91 µM | SK-MEL-5 27.4 µM | SK-OV-3 > 100 µM | OVCAR-4 34.7 µM | UO-31 27.7 µM | HCT-116 18.7 µM | 786-0 > 100 µM | SW-620 82.4 µM | LOX IMVI 25.2 µM | MOLT-4 51.3 µM

CN(C)c1ccc(/C=C2\Cc3ccccc3C2=O)cc1Br
inactive: RPMI-8226 24.1 µM | SK-MEL-28 39 µM | UACC-257 44.8 µM | TK-10 > 100 µM | CCRF-CEM 34.1 µM | A549 61.4 µM | OVCAR-8 63.5 µM | SK-MEL-5 26.4 µM | SK-OV-3 > 100 µM | OVCAR-4 41.8 µM | UO-31 36.6 µM | 786-0 54.1 µM | SK-MEL-2 40.6 µM | SW-620 59.3 µM | MOLT-4 28.5 µM

CCCCCCCCCCCCCCCCCC[N+](C)(C)Cc1ccc(C[N+](C)(C)CCCCCCCCCCCCCCCCCC)cc1
inactive: RPMI-8226 15.6 µM | SK-MEL-28 18.1 µM | UACC-257 15.9 µM | TK-10 13.6 µM | CCRF-CEM 16.9 µM | A549 13.6 µM | OVCAR-8 6.5 µM | SK-MEL-5 22.8 µM | SK-OV-3 26.6 µM | OVCAR-4 9.53 µM | UO-31 27.7 µM | HCT-116 14.2 µM | 786-0 12.7 µM | SK-MEL-2 24.1 µM | SW-620 18.2 µM | LOX IMVI 13.6 µM | MOLT-4 21 µM
